Test [1] has as its system soluble hIL6 receptor. Briefly: hIL-6R binding (affinity for the soluble hIL6 receptor). Further details: species or system human. Particulars: mutant hIL6 produced in E. coli. The text has this: Affinity for the soluble hIL6 receptor of mutant hIL6 produced in E. coli
The subject of test [2] is murine hybridoma cell line 7TD1. Briefly: HGF (Hybridoma Growth Factor) assay, growth of hIL-6 dependent hybridoma 7TD1. It counts as cell-based. Particulars: murine hybridoma 7TD1, HGF assay. As to the method:
Mutant interleukin 6 according to the present invention has also been tested using the classical HGF (Hybridoma Growth Factor) assay for its ability to stimulate growth of the hIL-6 dependent murine hybridoma cell line 7TD1 (Van Snick, J., Cayphas, S., Vink, A., Uyttenhove, C., Coulie, P. G. and Simpson, R. J. (1986) Proc. Natl. Acad. Sci. USA, 83, 9679-9683). The assay was performed taking into account the indications of Fiorillo, M. T., Cabibbo, A., Iacopetti, P., Fattori, E. and Ciliberto, G. (1992) Eur. J. Immunol. 22, 2609-2615.

The subject of test [3] is human hepatoma cell line Hep3B. Briefly: CRP-CAT transcription induction assay in transfected human hepatoma Hep3B cells. The format is cell-based. Particulars: ratio of amounts of wild type hIL-6 and mutant giving half maximal stimulation of CRP-CAT in Hep3B cells; wild type = 100%. As to the method: The biological activity of the mutant of interest was determined first of all on cells of human origin. The activity of hIL-6 on human cells was assayed for its ability to enhance transcription from acute phase gene promoters in cells of hepatic origin (Morrone, G., Ciliberto, G., Oliviero, S., Arcone, R., Dente, L., Content, J. and Cortese, R. (1988) J. Biol. Chem. 263, 12554-12558). […]
In particular, human Hep3B cells were transfected with 45-50/ ug of the plasmid -219 CRP-CAT containing the IL-6 responsive element of the CRP promoter gene. […] After 16-18 hours, precipitates were removed, cells were trypsinized, pooled, counted and plated in equal number (10^5 to 3×10^5) in 5 cm diameter petri dishes; 7-9 hours after plating, cells were induced for 36-40 hours with increasing amounts of mutant or wild-type hIL-6. […]
The assay was carried out in duplicate (in triplicate in case of wild type hIL-6) with serial dilutions of two to four independent preparations of mutant. The activity of the mutant, expressed as a percent of wild type hIL-6, was calculated as the ratio between the amount of wild type hIL-6 and the amount of the mutant under examination necessary to give half maximal stimulation.

This is an account of results in patent US5681723A, “Mutant interleukin 6 with improved biological activity over wild interleukin 6” (Instituto di Ricerche di Biologia Molecolare P. Angelett …, priority 1992, dated 1997).

With “S176R: mutant human interleukin 6 with arginine in position 176 in place of serine of wild interleukin 6 [Mutation S176R]”, the “hIL-6R binding (% of wt hIL-6)” value in test [1] is reported as 320 ± 87 % of wt hIL-6. In addition, in test [2], the “ability to stimulate growth of hIL-6 dependent 7TD1 cells, with respect to the wild type” value is “significant increase in biological activity”. In test [3], the “Biological activity (% of wt hIL-6)” value was 370±90 % of wt hIL-6.
